Where two headings read alike, the source gives them in different places.
What was measured:
TNF-α [1] = assay: LPS induced TNF-α in THP-1 monocytic cells; type: cell-based; conditions: Homo sapiens, LPS 1 μg/mL 24 hours
Protocol: (§1) Human THP-1 monocyte cells were cultured and incubated with compounds at different concentrations. Cells were then challenged with lipopolysaccharides (LPS) at a concentration of (1 μg/mL) for 24 hours. Cell supernatants were then analyzed for the presence of TNF-α cytokines by antibody directed enzyme-linked immunoassay from R & D System, Minneapolis, USA.

IL-1β = assay: LPS induced IL-1β in hPBMC; type: cell-based; conditions: Homo sapiens, LPS 1 μg/mL 24 hours
Protocol: as §1, with “PBMC” for “THP-1”, “TNF-α, IL-6 and IL-1β” for “TNF-α”, “immunoassay. Dexamethasone was used as a positive control in the experiments.” for “immunoassay from R & D System, Minneapolis, USA.”

IL-6 [2] = assay: LPS induced IL-6 in hPBMC; type: cell-based; conditions: Homo sapiens, LPS 1 μg/mL 24 hours
Protocol: as §1, with “PBMC” for “THP-1”, “TNF-α, IL-6 and IL-1β” for “TNF-α”, “immunoassay. Dexamethasone was used as a positive control in the experiments.” for “immunoassay from R & D System, Minneapolis, USA.”

TNF-α [3] = assay: LPS induced TNF-α in hPBMC; type: cell-based; conditions: Homo sapiens; hPBMC, 10 μM, LPS 1 μg/mL 24 hours; * average of two experiments; read-out: Inhibition (%) TNF-α
Protocol: as §1, with “PBMC” for “THP-1”, “TNF-α, IL-6 and IL-1β” for “TNF-α”, “immunoassay. Dexamethasone was used as a positive control in the experiments.” for “immunoassay from R & D System, Minneapolis, USA.”

TNF-α [4] = assay: LPS induced sepsis model in mice, serum TNF-α; type: in vivo; conditions: Mus musculus; SW mice, oral 50 mg/kg body weight one hour before LPS, serum after 90 min
Protocol: (§2) SW mice were orally treated with vehicle, dexamethasone (5 mg/kg) and compounds at a dose of 50 mg/kg body weight one hour before LPS injection (10 μg/mouse, ip) and blood was collected after 90 min and measured serum TNF-α and IL-6 levels by ELISA.

IL-6 [5] = assay: LPS induced sepsis model in mice, serum IL-6; type: in vivo; conditions: Mus musculus; SW mice, oral 50 mg/kg body weight one hour before LPS, serum after 90 min
Protocol: as §2

Human recombinant TACE = biological target: T1, Human recombinant TACE (Homo sapiens, UniProt P78536); assay: TACE enzyme inhibition; type: biochemical
T1 construct: purchased R&D System 930-ADB; host or cells: Sf21 cells
Excerpt: Tumor necrosis factor-α converting enzyme (TACE/ADAM-17) is responsible for the release of TNF-α, a potent proinflammatory cytokine associated with many chronic debilitating diseases such as rheumatoid arthritis and multiple sclerosis. TNF-α also induces angiogenesis, promotes fibroblast proliferation and can combine with receptors on selected tumor cells to induce cell lysis. TACE is also implicated in amyloid precursor protein secretion. Human recombinant TACE expressed in Sf21 cells (R&D System, 930-ADB) is used. Test compound and/or vehicle is incubated with the enzyme (25 ng/ml) and 10 μM Mca-P-L-A-Q-A-V-Dpa-R-S-S-S-R-NH2 (SEQ. ID NO. 3) in Modified Tris-buffer pH 9.0 for 30 minutes at 25° C. Enzyme activity is determined spectrofluorimetrically by measuring the formation of fluorescent Mca-P-L-A-Q-A-NH2 (SEQ. ID NO. 4). Compounds are screened at 10 μM.

MMP-1 = biological target: T2, MMP-1 (Homo sapiens, UniProt P03956); assay: MMP-1 enzyme inhibition; type: biochemical
T2 construct: purchased Calbiochem 444208; host or cells: human rheumatoid synovial fibroblast (natural source)
T2 sequence (P03956 100-469): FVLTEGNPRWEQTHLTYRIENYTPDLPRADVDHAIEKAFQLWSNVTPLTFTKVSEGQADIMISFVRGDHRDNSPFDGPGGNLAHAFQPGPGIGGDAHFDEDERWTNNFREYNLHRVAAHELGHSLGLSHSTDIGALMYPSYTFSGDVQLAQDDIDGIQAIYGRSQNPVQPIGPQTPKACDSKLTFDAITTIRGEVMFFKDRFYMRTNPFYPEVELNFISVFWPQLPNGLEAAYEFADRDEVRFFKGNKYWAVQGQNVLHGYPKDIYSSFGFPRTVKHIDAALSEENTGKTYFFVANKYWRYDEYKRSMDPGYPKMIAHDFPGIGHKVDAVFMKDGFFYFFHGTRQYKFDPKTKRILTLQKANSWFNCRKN
Protocol: The enzyme MMP-1 (interstitial collagenase; EC 3.4.24.7, human rheumatoid synovial fibroblast, Calbiochem Cat. 444208) is used. MMP-1 is first activated with APMA for 60 minutes at 37° C. Test compound and/or vehicle is then preincubated for 60 minutes at 37° C. with the active enzyme ([…]) in a reaction mixture containing 50 mM MOPS (pH 7.2), 10 mM CaCl2 and 10 μM ZnCl2. The reaction is initiated by addition of Mca-Pro-Leu-Gly-Leu-Dpa-Ala-Arg-NH2 (SEQ. ID NO. 1) (4 μM) and incubated for 120 minutes at 37° C. The N-terminal protecting group Mca is 7-methoxycoumarin-4-yl acetyl. The amino acid Dpa is N^3-(2,4-dinitrophenyl)-L-diaminopropanoyl. Enzyme activity is determined spectrofluorometrically by measuring the formation of fluorescent Mca-Pro-Leu-Gly (SEQ. ID NO. 2). Compounds are screened at 10 μM.

MMP-9 = biological target: T3, MMP-9 (Homo sapiens, UniProt P14780); assay: MMP-9 enzyme inhibition; type: biochemical
T3 construct: purchased Calbiochem PF024-5UG
Protocol: The enzyme MMP-9 (gelatinase B; EC 3.4.24.35, human recombinant, Calbiochem Cat. PF024-5UG) is used. MMP-9 is first activated with APMA for 60 minutes at 37° C. Test compound and/or vehicle is then preincubated for 60 minutes at 37° C. with the active enzyme (11 nM) in a reaction mixture containing 50 mM MOPS (pH 7.2), 10 mM CaCl2 and 10 μM ZnCl2. The reaction is initiated by addition of 4 μM Mca-Pro-Leu-Gly-Leu-Dpa-Ala-Arg-NH2 (SEQ. ID NO. 1) and incubated for 120 minutes at 37° C. Enzyme activity is determined spectrofluorometrically by measuring the formation of fluorescent Mca-Pro-Leu-Gly (SEQ. ID NO. 2). Compounds are screened at 10 μM.

[6] = biological target: T4, Phosphodiesterase type-3 (PDE3) (Homo sapiens, UniProt Q14432); assay: PDE-3 enzyme inhibition; type: biochemical
T4 construct: from tissue; host or cells: human platelets

[7] = system: Phosphodiesterase type 4 (PDE4); assay: PDE-4 enzyme inhibition; type: biochemical, human
TNF-α [8] = assay: TNF-α secretion following LPS stimulation of mouse spleenic macrophages; type: cell-based; conditions: Macrophage, LPS stimulated mouse spleenic macrophages, read-out: Mice Spleen Cells (% Inhibition) TNF-α
nitric oxide = assay: Nitric oxide secretion following LPS stimulation of mouse spleenic macrophages; type: cell-based; conditions: Macrophage, LPS stimulated mouse spleenic macrophages, read-out: Mice Spleen Cells (% Inhibition) NO
IL-12 = IL-12 secretion following LPS stimulation of mouse spleenic macrophages; type: cell-based
Excerpt: Compound 6 of this class inhibited IL-12 production in mouse splenic macrophages stimulated with LPS for 72 hrs.

T cell proliferation = assay: Inhibition of T cell proliferation; type: cell-based, mice; conditions: Mus musculus, T-cell, 10 μM
Protocol: SJL mice were immunized with keyhole limpet hemocyanin (KLH) in complete Freund's adjuvant (CFA). 12 days later regional lymph nodes were isolated and a proliferative response to KLH in the presence or absence of drug was performed (in presence of 3H thymidine). The results are expressed at Stimulation index (CPM+antigen/CPM no antigen). Similarly, mitogen induced concanavalin A (CON-A), IL-4, IL-2 induced T cell proliferation was measured in presence of compounds are shown in Table VI.

[9] = system: Collagen Induced Arthritis Model; assay: Collagen induced arthritis model; type: in vivo; conditions: male DBA/1 Lac mice, oral 50 mg/kg daily
Protocol: Arthritis induced in male DBA/1 Lac mice with bovine collagen (100 μg/mouse). Booster dose was given on Day 21 and started treatment when clinical score was about 2. […] Dexamethasone was kept as positive control. Severity of each paw score was defined from 0=no erythma to 4=severe arthritis for the swollen paws with a maximum possible score of 16 for 4 paws (4×4) in one animal.

T1 sequence (P78536 215-671 limits assumed): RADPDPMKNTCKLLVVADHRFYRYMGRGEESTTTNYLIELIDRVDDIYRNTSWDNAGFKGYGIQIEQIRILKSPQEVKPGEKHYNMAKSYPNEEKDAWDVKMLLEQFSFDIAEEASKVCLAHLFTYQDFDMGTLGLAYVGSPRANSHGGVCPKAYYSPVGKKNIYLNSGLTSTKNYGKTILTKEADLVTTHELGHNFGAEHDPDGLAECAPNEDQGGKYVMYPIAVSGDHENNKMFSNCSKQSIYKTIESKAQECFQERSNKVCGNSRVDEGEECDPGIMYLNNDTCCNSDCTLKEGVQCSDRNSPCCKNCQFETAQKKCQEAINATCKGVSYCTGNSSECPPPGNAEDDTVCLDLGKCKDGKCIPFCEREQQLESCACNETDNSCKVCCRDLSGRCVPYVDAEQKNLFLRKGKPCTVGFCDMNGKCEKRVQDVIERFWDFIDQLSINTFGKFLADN
T3 sequence (P14780 107-707 limits assumed): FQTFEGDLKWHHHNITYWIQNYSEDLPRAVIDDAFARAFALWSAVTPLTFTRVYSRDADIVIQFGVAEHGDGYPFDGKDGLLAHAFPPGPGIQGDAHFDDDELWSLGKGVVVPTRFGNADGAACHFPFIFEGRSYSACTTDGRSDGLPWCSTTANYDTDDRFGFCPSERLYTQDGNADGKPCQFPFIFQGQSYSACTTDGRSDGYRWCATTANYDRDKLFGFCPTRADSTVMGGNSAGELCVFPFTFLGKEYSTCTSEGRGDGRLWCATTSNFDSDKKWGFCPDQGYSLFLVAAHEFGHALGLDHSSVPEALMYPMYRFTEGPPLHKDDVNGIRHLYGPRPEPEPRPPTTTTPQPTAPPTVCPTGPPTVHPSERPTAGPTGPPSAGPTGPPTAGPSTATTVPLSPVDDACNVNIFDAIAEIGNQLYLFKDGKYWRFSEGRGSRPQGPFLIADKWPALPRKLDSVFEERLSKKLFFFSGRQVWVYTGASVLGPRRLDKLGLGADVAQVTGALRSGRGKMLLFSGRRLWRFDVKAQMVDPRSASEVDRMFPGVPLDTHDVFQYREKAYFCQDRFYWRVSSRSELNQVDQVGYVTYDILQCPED
T4 sequence (Q14432 whole entry): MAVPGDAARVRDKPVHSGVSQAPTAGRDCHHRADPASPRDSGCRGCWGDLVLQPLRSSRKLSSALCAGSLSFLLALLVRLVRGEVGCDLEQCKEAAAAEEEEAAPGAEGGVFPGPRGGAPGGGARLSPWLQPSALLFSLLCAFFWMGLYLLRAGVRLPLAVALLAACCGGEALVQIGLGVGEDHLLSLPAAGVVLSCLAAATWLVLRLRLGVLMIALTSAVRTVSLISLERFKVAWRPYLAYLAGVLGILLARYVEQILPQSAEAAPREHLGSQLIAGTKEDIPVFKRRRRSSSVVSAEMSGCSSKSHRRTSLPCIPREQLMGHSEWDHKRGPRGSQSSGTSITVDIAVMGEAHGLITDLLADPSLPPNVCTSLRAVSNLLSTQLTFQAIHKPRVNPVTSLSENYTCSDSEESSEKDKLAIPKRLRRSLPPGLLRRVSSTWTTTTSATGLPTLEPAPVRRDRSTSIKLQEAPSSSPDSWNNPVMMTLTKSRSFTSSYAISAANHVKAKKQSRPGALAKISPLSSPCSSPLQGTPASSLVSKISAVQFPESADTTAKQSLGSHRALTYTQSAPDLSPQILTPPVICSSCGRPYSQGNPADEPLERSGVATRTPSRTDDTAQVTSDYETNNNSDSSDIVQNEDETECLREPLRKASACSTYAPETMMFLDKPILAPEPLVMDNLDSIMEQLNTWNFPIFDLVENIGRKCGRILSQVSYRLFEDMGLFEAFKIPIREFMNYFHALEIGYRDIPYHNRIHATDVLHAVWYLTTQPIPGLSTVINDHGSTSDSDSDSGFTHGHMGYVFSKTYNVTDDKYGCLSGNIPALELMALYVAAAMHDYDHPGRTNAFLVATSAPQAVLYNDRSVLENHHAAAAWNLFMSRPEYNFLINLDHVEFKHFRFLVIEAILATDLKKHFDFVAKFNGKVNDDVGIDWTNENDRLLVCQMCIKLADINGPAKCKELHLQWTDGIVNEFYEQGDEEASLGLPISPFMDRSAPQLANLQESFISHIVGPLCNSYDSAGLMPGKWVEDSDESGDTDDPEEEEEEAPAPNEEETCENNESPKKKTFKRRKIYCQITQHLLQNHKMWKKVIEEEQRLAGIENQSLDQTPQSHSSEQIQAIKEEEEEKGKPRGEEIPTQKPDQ

SMILES: Cl.NC(Cc1ccc(Oc2ccc(C(=O)NO)cc2)cc1)C(=O)OCc1ccccc1 (stereo not drawn) [Compound 6, 2-amino-3-[4-(4-hydroxycarbamoylphenoxy)-phenyl]-propionic acid benzyl ester hydrochloric acid salt]
- inhibition at 10 µM (TNF-α [1]): 92%
- inhibition at 10 µM (IL-1β): 73%
- inhibition at 10 µM (IL-6 [2]): 97%
- inhibition at 10 µM (TNF-α [3]): 69.6%
- inhibition at 50 mg/kg (TNF-α [4]): 50%
- inhibition at 50 mg/kg (IL-6 [5]): 30%
- inhibition at 10 µM (Human recombinant TACE): 15%
- inhibition at 10 µM (MMP-1): 12%
- inhibition at 10 µM (MMP-9): < 0%
- inhibition at 10 µM [6]: 3%
- Inhibition at 10 μM (%) PDE-4 [7]: 4%
- inhibition at 10 µM (TNF-α [8]): 20%
- inhibition at 10 µM (nitric oxide): 20%
- inhibition at 10 µM (IL-12; Macrophage, LPS stimulated mouse spleenic macrophages, 10 μM, read-out: Mice Spleen Cells (% Inhibition) IL-12): 80%
- IL-12 production (IL-12; mouse splenic macrophages stimulated with LPS for 72 hrs): strongly inhibited IL-12 production
- inhibition at 10 µM (T cell proliferation; Anti CD3 Abs induced, read-out: Inhibition of T cell proliferation, Anti CD3 Abs): < 80%
- inhibition at 10 µM (T cell proliferation; CON A induced, read-out: Inhibition of T cell proliferation, CON A): 61 to 80%
- inhibition at 10 µM (T cell proliferation; IL-2 induced, read-out: Inhibition of T cell proliferation, IL-2): 61 to 80%
- inhibition at 10 µM (T cell proliferation; IL-4 induced, read-out: Inhibition of T cell proliferation, IL-4): 61 to 80%
- inhibition at 10 µM (T cell proliferation; KLH specific, lymph nodes of KLH immunized SJL mice, read-out: Inhibition of T cell proliferation, KLH Specific): < 80%
- arthritic scores [9]: significantly improved the arthritic scores

Reference: patent US7456292B2, “Hydroxamic acid-containing amino acid derivatives” (Bexel Pharmaceuticals, Inc., priority 2005, dated 2008)
